Target: T1, human Nav1.8 channels (Homo sapiens, UniProt Q9Y5Y9)
T1 construct: expressed in transfected cells
Experiment: Nav1.8 Qube automated patch-clamp assay
Assay type: cell-based
Settings: human Nav1.8 stably expressed in HEK 293 cells; whole-cell voltage clamp, room temperature; resting or inactivated state not specified; read-out: IC50 values (nM) for Examples in the Nav1.8 Qube Assay
Outline: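 Whole-cell patch clamp at room temperature on HEK293 cells stably expressing human Nav1.8. A 1 Hz train of ten 20 ms pulses to 10 mV from −90 mV holding, with −67 mV repolarization, was applied; first- and tenth-pulse peak currents gave resting and inactivated-state IC50s by Hill fitting.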

T1 sequence (Q9Y5Y9 whole entry): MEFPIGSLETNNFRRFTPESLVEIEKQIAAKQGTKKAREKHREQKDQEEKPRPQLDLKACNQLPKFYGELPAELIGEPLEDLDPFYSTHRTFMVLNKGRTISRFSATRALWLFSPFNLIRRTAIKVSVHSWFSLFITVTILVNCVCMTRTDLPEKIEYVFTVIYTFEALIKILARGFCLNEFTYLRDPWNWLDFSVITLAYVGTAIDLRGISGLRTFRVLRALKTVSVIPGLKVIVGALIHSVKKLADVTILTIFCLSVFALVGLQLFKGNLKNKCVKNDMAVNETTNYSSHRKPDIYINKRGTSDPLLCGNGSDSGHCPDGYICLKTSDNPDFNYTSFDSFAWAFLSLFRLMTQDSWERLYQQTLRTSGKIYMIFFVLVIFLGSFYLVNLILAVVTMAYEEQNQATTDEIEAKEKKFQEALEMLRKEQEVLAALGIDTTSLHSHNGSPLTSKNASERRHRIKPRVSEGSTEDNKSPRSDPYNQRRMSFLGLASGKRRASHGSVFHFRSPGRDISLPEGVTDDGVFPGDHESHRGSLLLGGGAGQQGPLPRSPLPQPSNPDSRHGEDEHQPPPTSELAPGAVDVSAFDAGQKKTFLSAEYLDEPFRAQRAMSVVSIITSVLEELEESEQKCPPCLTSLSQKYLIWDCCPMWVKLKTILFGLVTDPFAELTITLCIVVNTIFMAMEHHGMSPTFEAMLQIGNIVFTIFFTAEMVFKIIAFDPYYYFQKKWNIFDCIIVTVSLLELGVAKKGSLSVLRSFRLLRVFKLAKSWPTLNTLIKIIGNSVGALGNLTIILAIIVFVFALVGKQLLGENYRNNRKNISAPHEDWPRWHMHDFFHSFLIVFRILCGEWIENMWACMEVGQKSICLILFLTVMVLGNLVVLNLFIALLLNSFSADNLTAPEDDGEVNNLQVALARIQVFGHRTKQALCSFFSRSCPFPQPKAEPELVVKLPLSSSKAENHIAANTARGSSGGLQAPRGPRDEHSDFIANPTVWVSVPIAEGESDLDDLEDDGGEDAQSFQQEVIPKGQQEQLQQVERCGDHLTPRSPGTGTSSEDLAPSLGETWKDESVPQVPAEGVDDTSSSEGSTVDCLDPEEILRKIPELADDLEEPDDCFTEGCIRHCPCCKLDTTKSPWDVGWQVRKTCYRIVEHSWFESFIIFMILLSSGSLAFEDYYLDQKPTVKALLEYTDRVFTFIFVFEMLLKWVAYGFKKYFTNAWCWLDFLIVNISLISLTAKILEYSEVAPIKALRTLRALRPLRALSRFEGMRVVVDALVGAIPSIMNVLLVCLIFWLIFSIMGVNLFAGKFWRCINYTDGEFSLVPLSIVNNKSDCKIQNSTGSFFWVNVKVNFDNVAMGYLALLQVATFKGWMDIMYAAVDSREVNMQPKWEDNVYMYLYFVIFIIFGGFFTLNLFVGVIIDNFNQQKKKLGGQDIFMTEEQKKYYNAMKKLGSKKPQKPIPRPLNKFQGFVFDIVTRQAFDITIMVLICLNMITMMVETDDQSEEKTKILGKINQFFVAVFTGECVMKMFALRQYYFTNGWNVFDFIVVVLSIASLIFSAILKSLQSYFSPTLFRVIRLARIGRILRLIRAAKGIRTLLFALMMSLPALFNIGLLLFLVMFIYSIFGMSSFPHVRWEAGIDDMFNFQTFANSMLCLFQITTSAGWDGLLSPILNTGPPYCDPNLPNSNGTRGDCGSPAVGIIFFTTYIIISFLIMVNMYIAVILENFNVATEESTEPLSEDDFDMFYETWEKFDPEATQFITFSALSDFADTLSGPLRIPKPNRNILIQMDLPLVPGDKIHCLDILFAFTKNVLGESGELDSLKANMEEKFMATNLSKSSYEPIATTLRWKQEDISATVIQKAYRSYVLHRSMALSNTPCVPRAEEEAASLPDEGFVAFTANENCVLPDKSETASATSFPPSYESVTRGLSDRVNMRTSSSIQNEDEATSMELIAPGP

IC50 | Compound
82 nM | Cc1nc(N2CCC(F)(F)CC2)c(C(=O)Nc2ccnc(S(N)(=O)=O)c2)cc1OCC(F)(F)F [Example 183]
3.8 nM | NS(=O)(=O)c1cc(NC(=O)c2cc(C(F)(F)F)c(C3CC3)nc2N2CCCC(F)(F)CC2)ccn1 [Example 185, 6-cyclopropyl-2-(4,4-difluoroazepan-1-yl)-N-(2-sulfamoylpyridin-4-yl)-5-(trifluoromethyl)nicotinamide]
1290 nM | O=C(Nc1cncc(F)c1)c1cc(C(F)(F)F)cnc1N1CCCCCC1 [Example 186, 2-(azepan-1-yl)-N-(5-fluoropyridin-3-yl)-5-(trifluoromethyl)nicotinamide]
141 nM | COc1cc(NC(=O)c2c(N3CCCCCC3)nc(C)c(Cl)c2C)ccn1 [Example 187, 2-(azepan-1-yl)-5-chloro-N-(2-methoxy-4-pyridyl)-4,6-dimethyl-pyridine-3-carboxamide]
5.9 nM | Cc1nc(N2CCCCCC2)c(C(=O)Nc2cncc(S(N)(=O)=O)c2)c(C)c1Cl [Example 188, 2-(azepan-1-yl)-5-chloro-4,6-dimethyl-N-(5-sulfamoyl-3-pyridyl)pyridine-3-carboxamide]
13 nM | Cc1nc(N2CCC(F)(F)CC2)c(C(=O)Nc2cncc(S(N)(=O)=O)c2)c(C)c1Cl [Example 189, 5-chloro-2-(4,4-difluoro-1-piperidyl)-4,6-dimethyl-N-(5-sulfamoyl-3-pyridyl)pyridine-3-carboxamide]
31 nM | Cc1nc(N2CCC3(CC2)CC3)c(C(=O)Nc2cncc(S(N)(=O)=O)c2)c(C)c1Cl [Example 190, 2-(6-azaspiro[2.5]octan-6-yl)-5-chloro-4,6-dimethyl-N-(5-sulfamoyl-3-pyridyl)pyridine-3-carboxamide]
124 nM | Cc1nc(N2CCCCC2)c(C(=O)Nc2cncc(S(N)(=O)=O)c2)c(C)c1Cl [Example 191, 5-chloro-4,6-dimethyl-2-(1-piperidyl)-N-(5-sulfamoyl-3-pyridyl)pyridine-3-carboxamide]
163 nM | COc1ccc(C(=O)Nc2cncc(S(N)(=O)=O)c2)c(N2CCCC(F)(F)CC2)n1 [Example 192, 2-(4,4-difluoroazepan-1-yl)-6-methoxy-N-(5-sulfamoyl-3-pyridyl)pyridine-3-carboxamide]
654 nM | N#Cc1cncc(NC(=O)c2cc(C(F)(F)F)cnc2N2CCCCCC2)c1 [Example 193, 2-(azepan-1-yl)-N-(5-cyano-3-pyridyl)-5-(trifluoromethyl)-pyridine-3-carboxamide]
1550 nM | COc1cncc(NC(=O)c2cc(C(F)(F)F)cnc2N2CCCCCC2)c1 [Example 194, 2-(azepan-1-yl)-N-(5-methoxy-3-pyridyl)-5-(trifluoromethyl)-pyridine-3-carboxamide]
2770 nM | Cc1cncc(NC(=O)c2cc(C(F)(F)F)cnc2N2CCCCCC2)c1 [Example 195, 2-(azepan-1-yl)-N-(5-methyl-3-pyridyl)-5-(tri-fluoromethyl)-pyridine-3-carboxamide]
5190 nM | O=C(Nc1cncc(CO)c1)c1cc(C(F)(F)F)cnc1N1CCCCCC1 [Example 196, 2-(azepan-1-yl)-N-[5-(hydroxymethyl)-3-pyridyl]-5-(trifluoro-methyl)pyridine-3-carboxamide]
244 nM | N#Cc1cc(NC(=O)c2cc(C(F)(F)F)cnc2N2CCCCCC2)ccn1 [Example 197, 2-(azepan-1-yl)-N-(2-cyano-4-pyridyl)-5-(tri-fluoromethyl)pyridine-3-carboxamide]

Continued, compound first:

Compound | IC50
CS(=O)(=O)c1cc(NC(=O)c2cc(C(F)(F)F)cnc2N2CCCCCC2)ccn1 [Example 140, 2-(azepan-1-yl)-N-(2-methylsulfonyl-4-pyridyl)-5-(trifluoromethyl)-pyridine-3-carboxamide] | 91 nM
NS(=O)(=O)c1cccc(NC(=O)c2cc(C(F)(F)F)cnc2N2CCCCCC2)n1 [Example 141, 2-(azepan-1-yl)-N-(6-sulfamoyl-2-pyridyl)-5-(trifluoromethyl)pyridine-3-carboxamide] | 245 nM
COc1ccc(C(=O)Nc2ccnc(S(N)(=O)=O)c2)c(N2CCCC(F)(F)CC2)n1 [Example 142, 2-(4,4-difluoroazepan-1-yl)-6-methoxy-N-(2-sulfamoylpyridin-4-yl)nicotinamide] | 29 nM
COc1cc(NC(=O)c2cc(C(F)(F)F)cnc2N2CCC3(CC2)CC3)ccn1 [Example 143, N-(2-methoxypyridin-4-yl)-2-(6-azaspiro[2.5]octan-6-yl)-5-(trifluoromethyl)-nicotinamide] | 1540 nM
NS(=O)(=O)c1cncc(NC(=O)c2cc(C(F)(F)F)cnc2N2CCCC(F)(F)CC2)c1 [Example 144, 2-(4,4-difluoroazepan-1-yl)-N-(5-sulfamoyl-3-pyridyl)-5-(trifluoro-methyl)pyridine-3-carboxamide] | 36 nM
NS(=O)(=O)c1cncc(NC(=O)c2cc(C(F)(F)F)cnc2N2CCCCCC2)c1 [Example 145, 2-(azepan-1-yl)-N-(5-sulfamoyl-3-pyridyl)-5-(trifluoromethyl) pyridine-3-carboxamide] | 161 nM
COc1cc(NC(=O)c2cc(C(F)(F)F)cnc2N2CCCC(F)(F)CC2)ccn1 [Example 146, 2-(4,4-difluoroazepan-1-yl)-N-(2-methoxy-4-pyridyl)-5-(trifluoro-methyl)pyridine-3-carboxamide] | 177 nM
C[C@@H]1CN(c2ncc(C(F)(F)F)cc2C(=O)Nc2ccnc(C#N)c2)C[C@H](C)C1(F)F [Example 150, N-(2-cyano-4-pyridyl)-2-[(3S,5R)-4,4-difluoro-3,5-dimethyl-1-piperidyl]-5-(tri-fluoromethyl)pyridine-3-carboxamide] | 77 nM
CS(=O)(=O)c1cc(NC(=O)c2cc(C(F)(F)F)cnc2N2C[C@@H]3[C@H](C2)C(F)(F)C3(F)F)ccn1 [Example 151, N-(2-methylsulfonyl-4-pyridyl)-2-[(1R,5S)-6,6,7,7-tetrafluoro-3-azabicyclo[3.2.0]heptan-3-yl]-5-(trifluoro-methyl)pyridine-3-carboxamide] | 89 nM
CS(=O)(=O)c1cc(NC(=O)c2cc(C(F)(F)F)cnc2N2C[C@H]3CC[C@H]3C2)ccn1 [Example 152, 2-[(1R,5S)-3-azabicyclo[3.2.0]heptan-3-yl]-N-(2-methylsulfonyl-4-pyridyl)-5-(trifluoro-methyl)pyridine-3-carboxamide] | 155 nM
N#Cc1cc(NC(=O)c2cc(C(F)(F)F)cnc2N2C[C@H]3CC[C@H]3C2)ccn1 [Example 153, 2-[(1R,5S)-3-azabicyclo[3.2.0]heptan-3-yl]-N-(2-cyano-4-pyridyl)-5-(tri-fluoromethyl)pyridine-3-carboxamide] | 310 nM
COc1ccnc(N2CCC(F)(F)CC2)c1C(=O)Nc1ccnc(S(N)(=O)=O)c1 [Example 159, 2-(4,4-difluoropiperidin-1-yl)-4-methoxy-N-(2-sulfamoylpyridin-4-yl)nicotinamide] | 1630 nM
Cc1cc(Cl)nc(N2CCC(F)(F)CC2)c1C(=O)Nc1ccnc(S(N)(=O)=O)c1 [Example 170, 6-chloro-2-(4,4-difluoropiperidin-1-yl)-4-methyl-N-(2-sulfamoylpyridin-4-yl)nicotinamide] | 24 nM
NS(=O)(=O)c1cc(NC(=O)c2cc(OC(F)F)cnc2N2CCCC(F)(F)CC2)ccn1 [Example 171, 2-(4,4-difluoroazepan-1-yl)-5-(difluoromethoxy)-N-(2-sulfamoylpyridin-4-yl)nicotinamide] | 9.2 nM
Cc1ncc(C(=O)Nc2ccnc(S(N)(=O)=O)c2)c(N2CCCC(F)(F)CC2)n1 [Example 173, 4-(4,4-difluoroazepan-1-yl)-2-methyl-N-(2-sulfamoylpyridin-4-yl)pyrimidine-5-carboxamide] | 199 nM
NS(=O)(=O)c1cc(NC(=O)c2ccc(C(F)F)nc2N2CCCC(F)(F)CC2)ccn1 [Example 174, 2-(4,4-difluoroazepan-1-yl)-6-(difluoromethyl)-N-(2-sulfamoylpyridin-4-yl)nicotinamide] | 4.1 nM
NS(=O)(=O)c1cc(NC(=O)c2cc(C(F)(F)F)cnc2N2CCC(F)(F)CC2)ccn1 [Example 175, 2-(4,4-difluoropiperidin-1-yl)-N-(2-sulfamoylpyridin-4-yl)-5-(trifluoromethyl) nicotinamide] | 53 nM
O=C(Nc1ccnc(S(=O)(=O)O)c1)c1cc(C(F)(F)F)cnc1N1CCC(F)(F)CC1 [Example 176, 4-(2-(4,4-difluoropiperidin-1-yl)-5-(trifluoromethyl)nicotinamido)pyridine-2-sulfonic acid] | 1090 nM
Cc1nc(N2CCC(F)(F)CC2)c(C(=O)Nc2ccnc(S(N)(=O)=O)c2)cc1F [Example 178, 2-(4,4-difluoropiperidin-1-yl)-5-fluoro-6-methyl-N-(2-sulfamoylpyridin-4-yl)nicotinamide] | 13 nM
NS(=O)(=O)c1cc(NC(=O)c2cc(C(F)(F)F)nnc2N2CCCC(F)(F)CC2)ccn1 [Example 179, 3-(4,4-difluoroazepan-1-yl)-N-(2-sulfamoylpyridin-4-yl)-6-(trifluoromethyl)pyridazine-4-carboxamide] | 102 nM
Cc1nc(N2CCC(F)(F)CC2)c(C(=O)Nc2ccnc(S(N)(=O)=O)c2)cc1C(C)(C)C [Example 180, 5-(tert-butyl)-2-(4,4-difluoropiperidin-1-yl)-6-methyl-N-(2-sulfamoylpyridin-4-yl)nicotinamide] | 14 nM
NS(=O)(=O)c1cc(NC(=O)c2cc(C3CC3)c(C(F)(F)F)nc2N2CCC(F)(F)CC2)ccn1 [Example 181, 5-cyclopropyl-2-(4,4-difluoropiperidin-1-yl)-N-(2-sulfamoylpyridin-4-yl)-6-(trifluoromethyl)nicotinamide] | 17 nM
NS(=O)(=O)c1cc(NC(=O)c2cc(C3CC3)c(OC(F)(F)F)nc2N2CCC(F)(F)CC2)ccn1 [Example 182, 5-cyclopropyl-2-(4,4-difluoropiperidin-1-yl)-N-(2-sulfamoylpyridin-4-yl)-6-(trifluoromethoxy)nicotinamide] | 62 nM

Source: patent US20210387966A1, “2-AMINO-N-HETEROARYL-NICOTINAMIDES AS NAV1.8 INHIBITORS” (Merck Sharp & Dohme Corp., priority 2018, published 2021)
